Assay results as given in patent US12157730B2, “Heteroaryl derivative, method for producing same, and pharmaceutical composition comprising same as effective component” (VORONOI INC., priority 2019, dated 2024).

Molecular target: T1, Ba/F3 cell EGFR Exon20 ins NPH (Homo sapiens, UniProt P00533, INS773NPH)
T1 construct: expressed in transfected cells; host or cells: Ba/F3
Experiment: Ba/F3 cell proliferation suppression, EGFR Exon20 ins NPH
Assay type: cell-based
Conditions: GI50 class; Ba/F3 cell line with NPH inserted at Exon20 of EGFR; 72 hours
How it was run: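 Cells (3000–5000/well) plated 24 h before compound, 12-point 3-fold dilutions at 0.3 nM to 50 um final; Ba/F3 lines grown with 5 ng/ml IL-3. Viability by CellTiter-Glo luminescence after 72 h, growth ratio vs control, GI50 from curves; triplicate.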

C=CC(=O)Nc1cc(Nc2cc(N3OCC[C@@H]3c3ccc(F)cc3F)ncn2)c(OC)cc1N1CCC(N2CCN(C(C)=O)CC2)CC1 [compound 427, N-(2-(4-(4-acetylpiperazine-1-yl)piperidine-1-yl)-5-((6-((R)-3-(2,4-difluorophenyl)isoxazolidine-2-yl)pyrimidine-4-yl)amino)-4-methoxyphenyl) acrylamide]
Ba/F3 (NPH) Activity: A (GI50 < 50 nM)

C=CC(=O)Nc1cc(Nc2cc(N3OCC[C@@H]3c3ccc(F)c(F)c3F)ncn2)c(OC)cc1N1CCC(N2CCN(C3CC3)CC2)CC1 [Example 170, N-(2-(4-(4-cyclopropylpiperazine-1-yl)piperidine-1-yl)-4-methoxy-5-((6-((R)-3-(2,3,4-trifluorophenyl)isoxazolidine-2-yl)pyrimidine-4-yl)amino)phenyl)acrylamide]
Ba/F3 (NPH) Activity: A (GI50 < 50 nM)

C=CC(=O)Nc1cc(Nc2cc(N3OCC[C@@H]3Cc3cccnc3)ncn2)c(OC)cc1N1CCC(N2CCN(C3CC3)[C@H](C)C2)CC1 [compound 1056, N-(2-(4-((R)-4-cyclopropyl-3-methylpiperazine-1-yl)piperidine-1-yl)-4-methoxy-5-((6-((S)-3-(pyridine-3-ylmethyl)isoxazolidine-2-yl)pyrimidine-4-yl)amino)phenyl)acrylamide]
Ba/F3 (NPH) Activity: B (50 nM ≤ GI50 < 500 nM)

C=CC(=O)Nc1cc(Nc2cc(N3OCC[C@@H]3c3ccc(F)cc3F)ncn2)c(OC)cc1N1CCC(N2CCN(CC3CC3)CC2)CC1 [Example 203, N-(2-(4-(4-(cyclopropylmethyl)piperazine-1-yl)piperidine-1-yl)-5-((6-((R)-3-(2,4-difluorophenyl)isoxazolidine-2-yl)pyrimidine-4-yl)amino)-4-methoxyphenyl) acrylamide]
Ba/F3 (NPH) Activity: A (GI50 < 50 nM)

C=CC(=O)Nc1cc(Nc2cc(N3OCC[C@@H]3c3cc(F)ccc3F)ncn2)c(OC)cc1N1CCC(N(C)C)CC1 [compound 819, N-(5-((6-((R)-3-(2,5-difluorophenyl)isoxazolidine-2-yl)pyrimidine-4-yl)amino)-2-(4-(dimethylamino)piperidine-1-yl)-4-methoxyphenyl) acrylamide]
Ba/F3 (NPH) Activity: A (GI50 < 50 nM)

C=CC(=O)Nc1cc(Nc2cc(N3OCC[C@@H]3c3cccc(Cl)c3C)ncn2)c(OC)cc1N1CCC(N2CCN(C3CC3)CC2)CC1 [Example 145, N-(5-((6-((R)-3-(3-chloro-2-methylphenyl)isoxazolidine-2-yl)pyrimidine-4-yl)amino)-2-(4-(4-cyclopropylpiperazine-1-yl)piperidine-1-yl)-4-methoxyphenyl) acrylamide]
Ba/F3 (NPH) Activity: A (GI50 < 50 nM)

C=CC(=O)Nc1cc(Nc2cc(N3OCC[C@@H]3c3c(F)ccc(F)c3F)ncn2)c(OC)cc1N1CC[C@@H](N(C)C)C1 [compound 630, N-(2-((R)-3-(dimethylamino)pyrolidine-1-yl)-4-methoxy-5-((6-((R)-3-(2,3,6-trifluorophenyl)isoxazolidine-2-yl)pyrimidine-4-yl)amino)phenyl)acrylamide]
Ba/F3 (NPH) Activity: B (50 nM ≤ GI50 < 500 nM)

C=CC(=O)Nc1cc(Nc2cc(N3OCC[C@@H]3c3cccc(OC)c3)ncn2)c(OC)cc1N1CC[C@@H](N2CCOCC2)C1 [compound 777, N-(4-methoxy-5-((6-((R)-3-(3-methoxyphenyl)isoxazolidine-2-yl)pyrimidine-4-yl)amino)-2-((R)-3-morpholinopyrolidine-1-yl)phenyl)acrylamide]
Ba/F3 (NPH) Activity: B (50 nM ≤ GI50 < 500 nM)

C=CC(=O)Nc1cc(Nc2cc(N3OCC[C@@H]3Cc3cccc(F)c3C)ncn2)c(OC)cc1N(C)CCN(C)C [compound 1000, N-(2-((2-(dimethylamino)ethyl) (methyl)amino)-5-((6-((S)-3-(3-fluoro-2-methylbenzyl)isoxazolidine-2-yl)pyrimidine-4-yl)amino)-4-methoxyphenyl) acrylamide]
Ba/F3 (NPH) Activity: A (GI50 < 50 nM)

C=CC(=O)Nc1cc(Nc2cc(N3OCC[C@@H]3c3ccc4ccccc4c3)ncn2)c(OC)cc1N1CCC(N2CCN(C3CC3)CC2)CC1 [Example 151, N-(2-(4-(4-cyclopropylpiperazine-1-yl)piperidine-1-yl)-4-methoxy-5-((6-((R)-3-(naphthalene-2-yl)isoxazolidine-2-yl)pyrimidine-4-yl)amino)phenyl)acrylamide]
Ba/F3 (NPH) Activity: B (50 nM ≤ GI50 < 500 nM)

C=CC(=O)Nc1cc(Nc2cc(N3OCC[C@@H]3c3ccc(C)nc3)ncn2)c(OC)cc1N1CC[C@@H](N(C)C)C1 [Example 221, N-(2-((R)-3-(dimethylamino)pyrolidine-1-yl)-4-methoxy-5-((6-((R)-3-(6-methylpyridine-3-yl)isoxazolidine-2-yl)pyrimidine-4-yl)amino)phenyl) acrylamide]
Ba/F3 (NPH) Activity: B (50 nM ≤ GI50 < 500 nM)

C=CC(=O)Nc1cc(Nc2cc(N3OCC[C@@H]3c3cccc(Cl)c3C)ncn2)c(OC)cc1N1CCN(CC)CC1 [compound 585, N-(5-((6-((R)-3-(3-chloro-2-methylphenyl)isoxazolidine-2-yl)pyrimidine-4-yl)amino)-2-(4-ethylpiperazine-1-yl)-4-methoxyphenyl) acrylamide]
Ba/F3 (NPH) Activity: A (GI50 < 50 nM)

C=CC(=O)Nc1cc(Nc2cc(N3OCC[C@@H]3c3ccc4ccccc4c3)ncn2)c(OC)cc1N1CCC(N(C)C)CC1 [compound 510, N-(2-(4-(dimethylamino)piperidine-1-yl)-4-methoxy-5-((6-((R)-3-(naphthalene-2-yl)isoxazolidine-2-yl)pyrimidine-4-yl)amino)phenyl)acrylamide]
Ba/F3 (NPH) Activity: B (50 nM ≤ GI50 < 500 nM)

C=CC(=O)Nc1cc(Nc2cc(N3OCC[C@@H]3c3cc(F)ccc3F)ncn2)c(OC)cc1N1CCN(CC)CC1 [compound 849, N-(5-((6-((R)-3-(2,5-difluorophenyl)isoxazolidine-2-yl)pyrimidine-4-yl)amino)-2-(4-ethylpiperazine-1-yl)-4-methoxyphenyl) acrylamide]
Ba/F3 (NPH) Activity: A (GI50 < 50 nM)

C=CC(=O)Nc1cc(Nc2cc(N3OCC[C@@H]3c3ccc(F)c(Cl)c3F)ncn2)c(OC)cc1N1CCC(N2CCN(C(C)C)CC2)CC1 [compound 668, N-(5-((6-((R)-3-(3-chloro-2,4-difluorophenyl)isoxazolidine-2-yl)pyrimidine-4-yl)amino)-2-(4-(4-isopropylpiperazine-1-yl)piperidine-1-yl)-4-methoxyphenyl) acrylamide]
Ba/F3 (NPH) Activity: B (50 nM ≤ GI50 < 500 nM)

C=CC(=O)Nc1cc(Nc2cc(N3OCC[C@@H]3c3cccc(Cl)c3C)ncn2)c(OC)cc1N1CCC(N2C[C@H]3C[C@@H]2CO3)CC1 [compound 532, N-(2-(4-((1R,4R)-2-oxa-5-azabicyclo[2.2.1]heptane-5-yl)piperidine-1-yl)-5-((6-((R)-3-(3-chloro-2-methylphenyl)isoxazolidine-2-yl)pyrimidine-4-yl)amino)-4-methoxyphenyl) acrylamide]
Ba/F3 (NPH) Activity: A (GI50 < 50 nM)

C=CC(=O)Nc1cc(Nc2cc(N3OCC[C@@H]3c3cccc(Cl)c3F)ncn2)c(OC)cc1N1CCN(C2COC2)CC1 [compound 745, N-(5-((6-((R)-3-(3-chloro-2-fluorophenyl)isoxazolidine-2-yl)pyrimidine-4-yl)amino)-4-methoxy-2-(4-(oxetane-3-yl)piperazine-1-yl)phenyl) acrylamide]
Ba/F3 (NPH) Activity: A (GI50 < 50 nM)
